A word on the EC50: it is the concentration giving half of the maximal effect. Higher therefore signals a less potent agent.

Each structure is given as a SMILES string.

The first experiment concerns the target T1, Solute carrier family 12 member 5 (Homo sapiens, UniProt Q9H2X9).
T1 sequence (Q9H2X9 whole entry): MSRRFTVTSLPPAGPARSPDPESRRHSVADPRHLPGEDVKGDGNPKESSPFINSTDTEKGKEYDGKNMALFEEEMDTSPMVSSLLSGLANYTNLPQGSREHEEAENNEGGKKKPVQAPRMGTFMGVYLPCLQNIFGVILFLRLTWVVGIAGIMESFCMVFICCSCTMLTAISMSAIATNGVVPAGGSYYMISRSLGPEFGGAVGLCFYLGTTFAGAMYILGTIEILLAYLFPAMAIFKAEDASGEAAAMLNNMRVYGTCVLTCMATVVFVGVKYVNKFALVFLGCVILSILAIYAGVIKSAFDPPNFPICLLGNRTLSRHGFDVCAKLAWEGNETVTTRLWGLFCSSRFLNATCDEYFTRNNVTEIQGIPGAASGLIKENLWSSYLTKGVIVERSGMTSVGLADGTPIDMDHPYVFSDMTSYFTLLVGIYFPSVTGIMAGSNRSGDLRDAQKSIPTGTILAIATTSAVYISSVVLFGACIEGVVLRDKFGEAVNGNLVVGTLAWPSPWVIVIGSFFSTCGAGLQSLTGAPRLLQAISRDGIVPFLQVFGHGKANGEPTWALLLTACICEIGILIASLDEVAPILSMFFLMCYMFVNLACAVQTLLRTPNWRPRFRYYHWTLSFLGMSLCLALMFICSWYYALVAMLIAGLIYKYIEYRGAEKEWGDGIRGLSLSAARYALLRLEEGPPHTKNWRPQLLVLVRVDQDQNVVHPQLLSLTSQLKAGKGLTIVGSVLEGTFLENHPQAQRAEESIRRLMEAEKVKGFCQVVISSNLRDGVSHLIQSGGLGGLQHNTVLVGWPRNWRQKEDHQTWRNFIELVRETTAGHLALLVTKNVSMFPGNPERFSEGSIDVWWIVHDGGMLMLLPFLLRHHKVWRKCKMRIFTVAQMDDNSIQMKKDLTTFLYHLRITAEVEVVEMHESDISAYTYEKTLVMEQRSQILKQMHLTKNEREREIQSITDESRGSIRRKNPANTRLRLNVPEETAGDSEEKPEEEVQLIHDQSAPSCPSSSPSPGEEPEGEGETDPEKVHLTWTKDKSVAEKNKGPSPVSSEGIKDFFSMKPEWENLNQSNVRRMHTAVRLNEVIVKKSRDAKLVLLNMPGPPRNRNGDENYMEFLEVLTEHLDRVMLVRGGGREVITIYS
Kind of experiment: KCC2 modulator potency by thallium flux, dose response, cell-based, HEK293 KCC2, FluoZin-2 fluorescence (AID 1736).
Settings: not given
`Cc1ccc(-c2n[nH]c(=S)n2NC=CCc2ccccc2[N+](=O)[O-])cc1` returned an EC50 of 1.28 µM.
On to `Cc1[nH]c2ccccc2c1Cc1n[nH]c(=S)n1C`, for which the EC50 amounted to 31.5 µM.
For `COc1cc(C=NN(C)c2ccccc2)ccc1O`, the response was half-maximal at 2.75 µM (EC50).
`Cc1[nH]c2ccccc2c1Cc1nnc(S)o1` registered an EC50 of 0.744 µM.
In turn, `O=c1[nH]c2c(s1)C(c1ccccc1)c1c(c(O)n(-c3ccccc3)c1O)S2` (centres undefined) returned an EC50 of 0.0458 µM.
Compound `O=C(CSc1ccccc1C(=O)NCc1ccccc1)NC12CC3CC(CC(C3)C1)C2` showed an EC50 of 6.49 µM.
Same read-out and setting: to `CC(C)N1C(=O)S/C(=C/c2ccccc2OCc2ccc(C(=O)O)cc2)C1=O` belongs 2.21 µM.
`CC1CCCCN1C(=O)CSc1nnc(-c2c[nH]c3ccccc23)o1` (centres undefined): a half-maximal effect (EC50) was put at 15.2 µM.
`NC1=NC[C@@H](Cc2ccc(O)cc2)N1CCc1cc(C(F)(F)F)cc(C(F)(F)F)c1`: the EC50 was 38.2 µM.
Still for that read-out and setting: the value for `O=C1OC(c2ccc(O)cc2)(c2ccc(O)cc2)c2ccccc21` was 1.8 µM; that for `O=C(O)c1cc(-c2ccc(F)cc2F)ccc1O` was 3.25 µM.
Consider `CCn1c(=O)n(CC)c2cc(S(=O)(=O)N3CCC(c4ccccc4)CC3)ccc21` [1,3-diethyl-5-(4-phenylpiperidin-1-yl)sulfonyl-benzimidazol-2-one], for which the EC50 came to 13.2 µM.
Same read-out and setting: the value for `O=C(CSc1nnc(C2CC2)n1Cc1ccccc1)c1cc2ccccc2o1` [1-(1-benzofuran-2-yl)-2-[(4-benzyl-5-cyclopropyl-1,2,4-triazol-3-yl)sulfanyl]ethanone] was 3.85 µM; that for `O=C(CC(C(=O)N1CCc2ccccc21)n1ccnc1)N1CCc2ccccc2C1` (centres undefined) [1-(2,3-dihydroindol-1-yl)-4-(3,4-dihydro-1H-isoquinolin-2-yl)-2-(1-imidazolyl)butane-1,4-dione] was 113 µM; that for `CC1Cc2ccccc2N1C(=O)CSc1nnc(CNc2ccccc2)o1` (centres undefined) [1-(2-Methyl-2,3-dihydro-indol-1-yl)-2-(5-phenylaminomethyl-[1,3,4]oxadiazol-2-ylsulfanyl)-ethanone] was 0.137 µM.
`S=C(NCc1ccccc1Cl)Nc1ccccc1Cl` [1-(2-chlorobenzyl)-3-(2-chlorophenyl)thiourea] yielded an EC50 of 5.74 µM.
The same measure, in the same setting: to `CSc1ccccc1N=C(S)Nc1ccc(S(N)(=O)=O)cc1` [1-(2-methylsulfanylphenyl)-3-(4-sulfamoylphenyl)thiourea] belongs 12.8 µM; to `C=CCn1c(Cc2cccs2)nnc1SCC(=O)c1ccc2ccccc2c1` [1-(2-naphthalenyl)-2-[[4-prop-2-enyl-5-(thiophen-2-ylmethyl)-1,2,4-triazol-3-yl]thio]ethanone], 6.12 µM; to `O=C(CSc1nnc(-c2ccc(O)cc2)n1Cc1ccco1)N1CCc2ccccc2C1` [1-(3,4-Dihydro-1H-isoquinolin-2-yl)-2-[4-furan-2-ylmethyl-5-(4-hydroxy-phenyl)-4H-[1,2,4]triazol-3-ylsulfanyl]-ethanone], 5.59 µM.
The compound `O=C(CSc1nnc(CNc2ccccc2)o1)N1CCCc2ccccc21` [1-(3,4-Dihydro-2H-quinolin-1-yl)-2-(5-phenylaminomethyl-[1,3,4]oxadiazol-2-ylsulfanyl)-ethanone] returned an EC50 of 1730 µM.
The same measure, in the same setting: to `Cc1oc(-c2ccccc2)nc1C[S+]([O-])CC(=O)N1CCc2ccccc2C1` (centres undefined) [1-(3,4-dihydro-1H-isoquinolin-2-yl)-2-[(5-methyl-2-phenyl-1,3-oxazol-4-yl)methylsulfinyl]ethanone] belongs 3.68 µM; to `Cc1cccc(-c2nc(C[S+]([O-])CC(=O)N3CCc4ccccc4C3)c(C)o2)c1` (centres undefined) [1-(3,4-dihydro-1H-isoquinolin-2-yl)-2-[[5-methyl-2-(3-methylphenyl)-1,3-oxazol-4-yl]methylsulfinyl]ethanone], 13.7 µM; to `Cn1cc(C(=O)C(=O)N2CCCc3ccccc32)c2ccccc21` [1-(3,4-dihydro-2H-quinolin-1-yl)-2-(1-methyl-3-indolyl)ethane-1,2-dione], 8.6 µM.
For `O=C(CSc1ccc(-c2ccccc2)nn1)N1CCCc2ccccc21` [1-(3,4-dihydro-2H-quinolin-1-yl)-2-(6-phenylpyridazin-3-yl)sulfanyl-ethanone], the EC50 stood at 13.5 µM.
In turn, `S=C(NN=Cc1cccc2ccccc12)Nc1cccc(Cl)c1` [1-(3-chlorophenyl)-3-(1-naphthalenylmethylideneamino)thiourea] registered an EC50 of 8.29 µM.
`O=C(c1ccc(N2CCCCCC2)c([N+](=O)[O-])c1)N1CCc2ccccc21` [1-(4-azepan-1-yl-3-nitrobenzoyl)indoline] had an EC50 of 7.56 µM.
The same measure, in the same setting: the value for `Cc1c(C(=O)NCCSCc2ccc(F)cc2)cnn1-c1ccc(Cl)cc1` [1-(4-chlorophenyl)-N-[2-[(4-fluorobenzyl)thio]ethyl]-5-methyl-pyrazole-4-carboxamide] was 471 µM.
Same read-out and setting: to `O=C(CSc1nnc(Cc2ccccc2)o1)c1ccc(F)cc1` [1-(4-fluorophenyl)-2-[[5-(phenylmethyl)-1,3,4-oxadiazol-2-yl]sulfanyl]ethanone] belongs 2.86 µM.
The same measure, in the same setting: to `COc1ccc(N2C(=S)N=C(Nc3cccc(C)c3)C23CCCCC3)cc1` [1-(4-methoxyphenyl)-4-(3-methylanilino)-1,3-diazaspiro[4.5]dec-3-ene-2-thione] belongs 14.1 µM; to `Cc1ccc(S(=O)(=O)N2CCC(=O)N(C(COCc3ccccc3)Cc3ccccc3)CC2)cc1` (centres undefined) [1-(4-methylphenyl)sulfonyl-4-(1-phenyl-3-phenylmethoxy-propan-2-yl)-1,4-diazepan-5-one], 1.24 µM; to `S=C(NCc1cccnc1)Nc1ccc(Oc2ccccc2)cc1` [1-(4-phenoxyphenyl)-3-(3-pyridinylmethyl)thiourea], 1.19 µM.
`Cc1cccc(Nc2nnc(SCC(=O)c3ccc(Br)s3)s2)c1C` [1-(5-bromanylthiophen-2-yl)-2-[[5-[(2,3-dimethylphenyl)amino]-1,3,4-thiadiazol-2-yl]sulfanyl]ethanone] displayed an EC50 of 4.28 µM.
Same read-out and setting: the value for `Cc1ccc(Nc2nnc(SCC(=O)c3ccc(Br)s3)s2)c(C)c1` [1-(5-bromanylthiophen-2-yl)-2-[[5-[(2,4-dimethylphenyl)amino]-1,3,4-thiadiazol-2-yl]sulfanyl]ethanone] was 1.22 µM.
`Cc1noc(C)c1S(=O)(=O)N1CCC(C(=O)N2CCN(c3ccc(F)cc3)CC2)CC1` [1-({1-[(3,5-dimethylisoxazol-4-yl)sulfonyl]piperidin-4-yl}carbonyl)-4-(4-fluorophenyl)piperazine]: the EC50 worked out at 23.1 µM.
Compound `O=S(=O)(NCc1ccccc1)c1ccc(Cl)c(S(=O)(=O)NCc2ccccc2)c1` [1-N,3-N-dibenzyl-4-chlorobenzene-1,3-disulfonamide] came in with an EC50 of 1.7 µM.
Still for that read-out and setting: to `Cc1nc2cc(C(F)(F)F)ccc2n1C1CCN(Cc2nnnn2Cc2ccc3c(c2)OCO3)CC1` [1-[1-(1-Benzo[1,3]dioxol-5-ylmethyl-1H-tetrazol-5-ylmethyl)-piperidin-4-yl]-2-methyl-5-trifluoromethyl-1H-benzoimidazole] belongs 3.28 µM.

The experiment is the same for the next values; noted with them: inactive by the depositor's call.
`S=c1nc(-c2ccc3c(c2)CCO3)cc[nH]1` displayed an EC50 of 16.7 µM.
Same read-out and setting: to `Cc1[nH][nH]c(=O)c1C(c1ccc(-c2ccc(Cl)c(Cl)c2)o1)c1c(C)[nH][nH]c1=O` belongs 130 µM; to `Cc1ccc(C=NNC(=S)Nc2cccc(S(=O)(=O)N(C)C)c2)o1`, 16.6 µM; to `O=C(CSc1nnc(CNc2ccccc2)o1)c1ccc2c(c1)OCCO2` [1-(2,3-Dihydro-benzo[1,4]dioxin-6-yl)-2-(5-phenylaminomethyl-[1,3,4]oxadiazol-2-ylsulfanyl)-ethanone], 2.09 µM.
Still for that read-out and setting: the value for `S=C(Nc1ccccn1)Nc1ccccc1Cl` [1-(2-chlorophenyl)-3-(2-pyridinyl)thiourea] was 1.97 µM.
`Cc1nc(SCC(=O)N2CCc3ccccc3C2)c2c(C)c(C)sc2n1` [1-(3,4-Dihydro-1H-isoquinolin-2-yl)-2-(2,5,6-trimethyl-thieno[2,3-d]pyrimidin-4-ylsulfanyl)-ethanone]: the EC50 worked out at 14.7 µM.
The same measure, in the same setting: to `Cc1ccccc1-c1nc(CS(=O)(=O)CC(=O)N2CCc3ccccc3C2)c(C)o1` [1-(3,4-dihydro-1H-isoquinolin-2-yl)-2-[[5-methyl-2-(2-methylphenyl)-1,3-oxazol-4-yl]methylsulfonyl]ethanone] belongs 22.1 µM; to `Cc1ccc(C(=O)CSc2nnc(COc3cccc4cccnc34)o2)cc1` [1-(4-methylphenyl)-2-[[5-(8-quinolinyloxymethyl)-1,3,4-oxadiazol-2-yl]thio]ethanone], 8.12 µM.

The values above are taken from BindingDB's records for doi:10.7270/Q2M32T6M (Vanderbilt Screening Center for GPCRs, Ion Channels and …, 2009).
